Data on 12 compounds can be found in patent US7973012B2, “C-phenyl glycitol compound” (Taisho Pharmaceutical Co., Ltd, priority 2006, dated 2011).

For test [1], the system named is Streptozotocin diabetic model rats. As to the kind of experiment: Oral glucose tolerance test in streptozotocin diabetic model rats. The following applies: Rattus norvegicus; STZ diabetic SD/IGS rats; 1 mg/kg oral, glucose 2 g/kg oral 5 minutes later; decrease rate of ΔAUC 0-1 h vs control group; read-out: STZ rats-OGTT(2 g/kg) % inhibition ΔAUC0-1 h(mgh/dL) @1 mg/kg. The class given is in vivo. The method, then: 7-week-old SD/IGS rats (from CHARLES RIVER LABORATORIES JAPAN, INC., male) were fasted for about 16 hours. Then to these rats under etherization were administered 50 mg/kg of streptozotocin (STZ) via the tail vein to prepare diabetic model rats. Similarly, to rats under etherization were administered 1 mL/kg physiological saline containing 1.25 mmol/L of citric acid via tail veins to prepare normal control rats. One week (8 weeks old) after administration of STZ or 1.25 mmol/L citric acid physiological saline, the rats were subjected to oral glucose tolerance test.
After the rats were fasted for about 16 hours, the medicament (1 mg/kg) suspended in a 0.5% carboxymethyl cellulose (CMC) aqueous solution was orally administered to a medicament treated group, and only a 0.5% aqueous solution of CMC was orally administered to a control group. At 5 minutes after the administration, a glucose solution (2 g/kg) was orally administered to each rat, and blood was collected at 5 points in total: before the administration (0 time), after 0.25, 0.5, 1 and 2 hours after the oral administration.
The blood was collected from the orbital sinus venosus of each rat under etherization with a heparin-coated blood collection tube and centrifuged, and then blood plasma was separated. The concentration of glucose in the blood plasma was determined with Glucose CII Test Wako from Wako Pure Chemical Industries, Ltd. As for the intensity of inhibitory effect on elevation of blood glucose level, area under the blood glucose level curve (AUC) was calculated by the trapezoidal rule based on the blood glucose levels of the medicament treated group from 0 time to 1 hour time. And a basal value is subtracted from AUC to describe the intensity as area under the blood glucose level increment (ΔAUC) and describe the intensity as a decrease rate from the ΔAUC of the control group.

The target of a further test is T1, human SGLT1 (Homo sapiens, UniProt P13866).
T1 construct: expressed in transfected cells; host or cells: CHO-k1
T1 sequence (P13866 1-664): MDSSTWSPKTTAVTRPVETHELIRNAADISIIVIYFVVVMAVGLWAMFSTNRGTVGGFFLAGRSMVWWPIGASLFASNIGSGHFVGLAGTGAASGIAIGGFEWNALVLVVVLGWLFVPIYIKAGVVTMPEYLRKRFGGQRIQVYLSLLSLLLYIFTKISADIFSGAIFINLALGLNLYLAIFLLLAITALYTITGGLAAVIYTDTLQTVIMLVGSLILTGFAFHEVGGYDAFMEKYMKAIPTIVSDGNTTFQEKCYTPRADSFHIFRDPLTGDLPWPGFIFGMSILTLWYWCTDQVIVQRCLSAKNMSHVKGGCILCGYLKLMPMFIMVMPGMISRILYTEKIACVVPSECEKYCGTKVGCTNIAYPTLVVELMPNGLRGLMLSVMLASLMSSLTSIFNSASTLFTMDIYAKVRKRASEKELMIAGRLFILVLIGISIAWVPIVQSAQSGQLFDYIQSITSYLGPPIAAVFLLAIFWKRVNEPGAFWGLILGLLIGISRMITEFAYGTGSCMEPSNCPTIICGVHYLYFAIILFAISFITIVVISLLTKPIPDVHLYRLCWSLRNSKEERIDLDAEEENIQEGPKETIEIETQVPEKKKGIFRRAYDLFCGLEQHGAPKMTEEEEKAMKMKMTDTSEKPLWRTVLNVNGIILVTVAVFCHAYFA
As to the kind of experiment: Inhibition test of sodium-dependent sugar uptake in CHO-k1 cells stably expressing human SGLT1. The class given is cell-based. The note with it: for IC50: CHO-k1 cells expressing human SGLT1, [14C]methyl α-D-glucopyranoside uptake, 37° C., 30 minutes; for SGLT1 % inhibition at 100 nM: sugar uptake inhibition rate at 100 nM test compound vs control group. The method, then:
(§1) An SGLT1 sequence (NM_000343) was reverse-transcripted from human small intestinal mRNA, then amplified, and then introduced into pCMV-tag5A from Stratagene Corporation. An SGLT2 sequence (NM_003041) was prepared from human nephric mRNA as with the above method, and then introduced into pcDNA3.1+hygro from Invitrogen Corporation. Each cloned sequence was confirmed to be identical with the reported sequence.
(§2) The human SGLT1 and human SGLT2 expression vectors were transfected into CHO-k1 cells by using Lipofectamine 2000 from Invitrogen Corporation. The SGLT expression cells were incubated in the presence of Geneticin (SGLT1) or Hygromycin B (SGLT2) at a 500 μg/mL concentration to select resistant strains, and specific activity of sugar uptake was obtained as an indicator by the following system.
(§3) Cells stably expressing human SGLT1 and human SGLT2 were used for the inhibition test of sodium-dependent glucose uptake.
(§4) The cells were incubated in a pretreatment buffer A (200 μL for SGLT1, and 2 mL for SGLT2) for 20 minutes. The pretreatment buffer was removed and an uptake buffer B (75 μL for SGLT1, and 200 μL for SGLT2) containing a test compound was added to conduct an uptake reaction at 37° C. for 30 minutes (SGLT1) or an hour (SGLT2). After the reaction, the cells were washed with a washing buffer C twice (200 μL for SGLT1, and 2 mL for SGLT2), and then dissolved in a 0.2 M solution of NaOH (75 μL for SGLT1, and 400 μL for SGLT2). After a liquid scintilater was added thereto and mixed sufficiently, radioactivity was measured with microBETA (SGLT1) or a liquid scintillation counter from Beckman Coulter, Inc (SGLT2). As a control group, an uptake buffer containing no test compound was prepared. In addition, as the basic uptake buffer, an uptake buffer B containing choline chloride instead of NaCl was prepared. • A pretreatment buffer A: 140 mM choline chloride, 2 mM KCl, 1 mM CaCl2, 1 mM MgCl2, 10 mM HEPES/5 mM Tris, pH 7.4. • An uptake buffer B: 1 mM of methyl α-D-glucopyranoside containing [^14C]methyl α-D-glucopyranoside, 140 mM NaCl, 2 mM KCl, 1 mM CaCl2, 1 mM MgCl2, 10 mM HEPES/5 mM Tris, pH 7.4. • A washing buffer C: 10 mM methyl α-D-glucopyranoside, 140 mM choline chloride, 2 mM KCl, 1 mM CaCl2, 1 mM MgCl2, 10 mM HEPES/5 mM Tris, pH 7.4.
(§5) In order to obtain IC50 values, test compounds having adequate 6 concentrations were used and the test compound concentrations (IC50 values) at which sugar uptake is inhibited by 50% in comparison with the amount of sugar uptake (100%) of the control group were calculated.
(§6) In addition, the sugar uptake inhibition rates at 100 nM concentration of the test compound in comparison with the control group are shown in Table 7.

A further test concerns the target T2, human SGLT2 (Homo sapiens, UniProt P31639).
T2 construct: expressed in transfected cells; host or cells: CHO-k1
T2 sequence (P31639 1-672): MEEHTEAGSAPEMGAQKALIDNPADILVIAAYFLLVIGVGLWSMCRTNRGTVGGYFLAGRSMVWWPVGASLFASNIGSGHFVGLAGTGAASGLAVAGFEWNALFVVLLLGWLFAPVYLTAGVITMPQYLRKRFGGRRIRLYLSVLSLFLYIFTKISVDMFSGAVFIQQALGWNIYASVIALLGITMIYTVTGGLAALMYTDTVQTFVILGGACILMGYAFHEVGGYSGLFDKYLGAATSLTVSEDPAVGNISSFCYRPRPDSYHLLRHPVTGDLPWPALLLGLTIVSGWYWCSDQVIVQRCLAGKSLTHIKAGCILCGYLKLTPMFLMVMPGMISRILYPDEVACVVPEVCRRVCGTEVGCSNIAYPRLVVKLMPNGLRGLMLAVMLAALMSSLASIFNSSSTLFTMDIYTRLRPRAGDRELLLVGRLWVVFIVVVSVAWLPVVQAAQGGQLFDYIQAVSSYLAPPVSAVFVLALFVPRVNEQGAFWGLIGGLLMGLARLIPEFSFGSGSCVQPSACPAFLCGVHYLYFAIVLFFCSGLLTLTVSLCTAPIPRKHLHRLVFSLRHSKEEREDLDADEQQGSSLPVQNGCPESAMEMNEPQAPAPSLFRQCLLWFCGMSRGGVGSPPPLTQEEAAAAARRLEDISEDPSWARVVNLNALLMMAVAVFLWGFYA
As to the kind of experiment: Inhibition test of sodium-dependent sugar uptake in CHO-k1 cells stably expressing human SGLT2. The class given is cell-based. The note with it: for IC50: CHO-k1 cells expressing human SGLT2, [14C]methyl α-D-glucopyranoside uptake, 37° C., an hour; for SGLT2 % inhibition at 100 nM: sugar uptake inhibition rate at 100 nM test compound vs control group. The method, then: as §1, §2, §3, §4, §5, §6

What is called IC50 is the concentration that inhibits the measured activity by half. Low values mean inhibition by little substance, high ones a need for much substance. In the case of `Cc1cc(O)c([C@@H]2O[C@H](CO)[C@@H](O)[C@H](O)[C@H]2O)cc1Cc1ccc(CCCC(=O)NC(C)(C)CO)cc1` [Compound 1, (1S)-1,5-anhydro-1-[2-hydroxy-5-[4-[4-[(2-hydroxy-1,1-dimethylethyl)amino]-4-oxobutyl]benzyl]-4-methylphenyl]-D-glucitol], the inhibition in vivo at 1 mg/kg in test [1] amounted to 41.7%. In addition, the IC50 at human SGLT1 stood at 11 nM; at human SGLT2 it was 17 nM.

As for `Cc1cc(O)c([C@@H]2O[C@H](CO)[C@@H](O)[C@H](O)[C@H]2O)cc1Cc1ccc(CCCC(=O)NC(C)(CO)CO)cc1` [Compound 2, (1S)-1,5-anhydro-1-[2-hydroxy-5-[4-[4-[[2-hydroxy-1-(hydroxymethyl)-1-methylethyl]amino]-4-oxobutyl]benzyl]-4-methylphenyl]-D-glucitol], in test [1], the inhibition in vivo at 1 mg/kg worked out at 51.6%. Further, the IC50 was 32 nM on human SGLT1 and 18 nM against human SGLT2.

On to `Cc1cc(O)c([C@@H]2O[C@H](CO)[C@@H](O)[C@H](O)[C@H]2O)cc1Cc1ccc(CCCC(=O)NC(CO)(CO)CO)cc1` [Compound 3, (1S)-1,5-anhydro-1-[2-hydroxy-5-[4-[4-[[2-hydroxy-1,1-bis(hydroxymethyl)ethyl]amino]-4-oxobutyl]benzyl]-4-methylphenyl]-D-glucitol], for which, in test [1], the inhibition in vivo at 1 mg/kg amounted to 63.9%. In addition, the IC50 against human SGLT1 is 35 nM; against human SGLT2, 65 nM.

For the compound `Cc1cc(O)c([C@@H]2O[C@H](CO)[C@@H](O)[C@H](O)[C@H]2O)cc1Cc1ccc(CCCC(=O)NC(C)(C)C(N)=O)cc1` [Compound 4, (1S)-1-[5-[4-[4-[(2-amino-1,1-dimethyl-2-oxoethyl)amino]-4-oxobutyl]benzyl]-2-hydroxy-4-methylphenyl]-1,5-anhydro-D-glucitol], the inhibition in vivo at 1 mg/kg in test [1] came out at 51%. Moreover, the IC50 stood at 51 nM at human SGLT1 and 31 nM on human SGLT2.

Turning to `Cc1cc(O)c([C@@H]2O[C@H](CO)[C@@H](O)[C@H](O)[C@H]2O)cc1Cc1ccc(CCCNC(=O)NC(C)(C)CO)cc1` [Compound 8, (1S)-1,5-anhydro-1-[5-[4-[3-[[(2-hydroxy-1,1-dimethylethyl)aminocarbonyl]amino]propyl]benzyl]-2-hydroxy-4-methylphenyl]-D-glucitol], in test [1], the inhibition in vivo at 1 mg/kg was 45.1%. The 50% inhibitory concentration (IC50) against human SGLT1 came to 65 nM; at human SGLT2 it was 29 nM.

Regarding `Cc1cc(O)c([C@@H]2O[C@H](CO)[C@@H](O)[C@H](O)[C@H]2O)cc1Cc1ccc(CCCNC(=O)NC(CO)(CO)CO)cc1` [Compound 9, (1S)-1,5-anhydro-1-[5-[4-[3-[[[2-hydroxy-1,1-bis(hydroxymethyl)ethyl]aminocarbonyl]amino]propyl]benzyl]-2-hydroxy-4-methylphenyl]-D-glucitol], the inhibition in vivo at 1 mg/kg in test [1] turned out to be 50.1%. Besides, the IC50 on human SGLT1 was determined as 175 nM; on human SGLT2, 29 nM.

For the compound `Cc1cc(O)c([C@@H]2O[C@H](CO)[C@@H](O)[C@H](O)[C@H]2O)cc1Cc1ccc(CCNC(=O)NC(C)(C)CO)cc1` [Compound 10, (1S)-1,5-anhydro-1-[5-[4-[2-[[(2-hydroxy-1,1-dimethylethyl)aminocarbonyl]amino]ethyl]benzyl]-2-hydroxy-4-methylphenyl]-D-glucitol], in test [1], the inhibition in vivo at 1 mg/kg came to 67.8%. The figures for the IC50 on human SGLT1 and against human SGLT2 were 51 nM and 23 nM, respectively.

`Cc1cc(O)c([C@@H]2O[C@H](CO)[C@@H](O)[C@H](O)[C@H]2O)cc1Cc1ccc(CCNC(=O)NCc2ccccc2)cc1` [Compound 68]: the “SGLT1 % inhibition at 100 nM” value at human SGLT1 came to 60%. The “SGLT2 % inhibition at 100 nM” value on human SGLT2 is given as 83%.

For `Cc1cc(O)c([C@@H]2O[C@H](CO)[C@@H](O)[C@H](O)[C@H]2O)cc1Cc1ccc(CCNC(=O)NCCc2ccccc2)cc1` [Compound 71], the “SGLT1 % inhibition at 100 nM” value on human SGLT1 was 59%. In addition, the “SGLT2 % inhibition at 100 nM” value at human SGLT2 was found to be 86%.

For `Cc1cc(O)c([C@@H]2O[C@H](CO)[C@@H](O)[C@H](O)[C@H]2O)cc1Cc1ccc(CCNC(=O)NC2C3CC4CC(C3)CC2C4)cc1` (stereo partly shown) [Compound 123], the “SGLT1 % inhibition at 100 nM” value on human SGLT1 is 78%. In addition, the “SGLT2 % inhibition at 100 nM” value at human SGLT2 is listed as 87%.

`Cc1cc(O)c([C@@H]2O[C@H](CO)[C@@H](O)[C@H](O)[C@H]2O)cc1Cc1ccc(CCNC(=O)NC2CCCC2)cc1` [Compound 125]: the “SGLT1 % inhibition at 100 nM” value on human SGLT1 amounted to 68%. In addition, the “SGLT2 % inhibition at 100 nM” value on human SGLT2 is reported as 90%.

In the case of `Cc1cc(O)c([C@@H]2O[C@H](CO)[C@@H](O)[C@H](O)[C@H]2O)cc1Cc1ccc(CCNC(=O)NC2Cc3ccccc3C2)cc1` [Compound 138], the “SGLT1 % inhibition at 100 nM” value at human SGLT1 was found to be 65%. The “SGLT2 % inhibition at 100 nM” value at human SGLT2 worked out at 84%.
